Here are results for three molecules from US20220118057A1, “ALBUMIN NANOPARTICLES, THE MAKING METHOD, AND USES THEREOF” (NOVAGENESIS THERAPEUTIX (HK) LIMITED, priority 2019, published 2022).

The subject of one data set is BxPC-3 KRAS^G12V. Briefly: BSA macropinocytosis (6-TAMRA-BSA uptake), flow cytometry and confocal microscopy. Type of data set: cell-based, human. The following applies: 75 μM EIPA pretreatment 30 minutes. The method, then: (§1) 4 pancreatic cancer cell lines, MIA PaCa-2 control, MIA PaCa-2 KRAS KD, BxPC-3 control and BxPC-3 KRAS^G12V (10^5 cells per well, 1 mL) were inoculated in a 12-well microplate (Corning, N.Y., USA) and incubated at 37° C. and 5% CO2. When the cell density reached approximately 65%, the cell culture medium was replaced with a serum-free culture medium. After 12 hours, the culture medium was removed again and replaced with DMEM containing 1 mg/mL 6-TAMRA-BSA (500 μL/well). After incubated for another 4 hours, the cells were washed, digested and suspended in PBS (400 μL) and subjected to fluorescence analysis on a flow cytometer (BD, FACS Calibur, USA) using a 544 nm laser excitation and a 575 nm emission filter. Based on forward scattering and side scattering analysis, viable cells (10,000 cells/sample) were counted to detect the fluorescence intensity of the cells. For the EIPA (a known macropinocytosis inhibitor) inhibition experiment, cells were incubated with serum-free culture medium for 12 hours, pretreated with 75 μM of EIPA for 30 minutes, then replaced with fresh DMEM containing 1 mg/ml 6-TAMRA-BSA was added (500 μL/well).
(§2) Cells were cultured and treated as described above and grown on coverslips. After cell nuclei were stained with DAPI, the cells grown on the coverslips were observed under a multiphoton confocal Ti-E A1RMP inverted microscope (Nikon, Japan).
In general terms: A flow cytometer gives signals particle by particle.

Another data set deals with BxPC-3 control. The description is as above. Type of data set: cell-based, human. Particulars: 75 μM EIPA pretreatment 30 minutes. The method, then: as §1, §2
In data set [1] the test system is MIA PaCa-2 control. Described as above. Type of data set: cell-based, human. The following applies: 75 μM EIPA pretreatment 30 minutes. How it is done:
as §1, §2

For a further data set, the system named is MIA PaCa-2 KRAS KD. The data set is described as above. Type of data set: cell-based, human. The following applies: 75 μM EIPA pretreatment 30 minutes. The method, then:
as §1, §2

Data set [2] has as its system MIA PaCa-2 control. Briefly: In vitro cytotoxicity, MTS assay. Type of data set: cell-based, human. The following applies: PLE 1 U/mL; slightly higher than β-lap. From the text:
KRAS mutant cells MIA PaCa-2 (KRAS^G12C) and KRAS wild-type (KRAS^WT) BxPC-3 were selected for experiments. The expression levels of mutant KRAS in MIA PaCa-2 and BxPC-3 cells were manipulated. According to the supplier's protocol, MIA PaCa-2 cells with low expression level of KRAS were realized by lentiviral-mediated construction and transfection of pCDH-KRas-shRNA; control MIA PaCa-2 cells were realized by lentiviral-mediated transfection of pCDH vector; BxPC-3 cells with high expression level of KRAS were realized by lentiviral-mediated construction and transfection of pCDH-KRas-G12V, and control BxPC-3 cells were realized by lentiviral-mediated transfection of pCDH vector. All plasmids were purchased from […] Addgene (USA). The plasmid was transfected into the cells using transfection reagents (Promega, USA). 1 μg/mL puromycin was added to the culture medium for 48 hours to select stable transfected cell lines. Cells were represented as MIA PaCa-2 control, MIA PaCa-2 KRAS KD, BxPC-3 control and BxPC-3 KRAS^G12V.
Briefly, four pancreatic cancer cell lines were firstly inoculated into a 96-well culture plate (4000 cells/well), each well containing 0.1 mL of cell culture medium. […] The mean value of 6 wells per treatment was calculated and the treatment/control (T/C) value was calculated as a percentage of cell survival rate. […]
For orientation: Tetrazolium dyes change colour on reduction, which living cells bring about.

Data set [3] deals with porcine liver esterase (PLE). Kind of data set: Conversion of dC3 to β-lap at different BSA concentrations. Type of data set: in vitro ADME. How it is done:
In order to study the effect of BSA on the conversion of dC3 to β-lap catalyzed by an esterase, dC3 was dissolved in DMSO (final DMSO concentration <0.5%), and then added dropwise to a solution of 1 M sodium salicylate, 1 U/mL porcine liver esterase (PLE) and different concentrations of BSA. The solution was shaken in a water bath at 60 rpm at 37° C. At predetermined time points (5, 10, 15, 30, 45, 60, 90, and 120 minutes), each 0.5 mL of release medium were taken out and replaced with an equal volume of fresh medium. The removed release medium was mixed with 0.5 mL of acetonitrile, and centrifuged for 10 minutes at 10,000 rpm to remove denatured proteins. The concentration of β-lap was analyzed by H PLC.
In order to study whether the effect of BSA on dC3-β-lap conversion catalyzed by an esterase will change in the presence of the polymer, the above-mentioned experiments were also conducted with the amount of PEG5K-β-PLA5K proportional to micelle preparation. Other conditions remained unchanged.

Data set [4] can be described thus: Solubility and apparent drug concentration. Type of data set: physicochemical.
A further data set relates to SW1990 (KRAS^G12D). Briefly: In vitro cytotoxicity, MTS assay. Type of data set: cell-based. The method, then: (§3) Briefly, four pancreatic cancer cell lines were firstly inoculated into a 96-well culture plate (4000 cells/well), each well containing 0.1 mL of cell culture medium. […] PLE (1 U/mL) was added concurrently with the dC3 preparation. The cells were further incubated for 12 hours, then the culture medium containing drugs was removed and new culture medium without drug was added. Relative survival curves of the four pancreatic cancer cell lines were obtained using the MTS assay (Promega, USA). The mean value of 6 wells per treatment was calculated and the treatment/control (T/C) value was calculated as a percentage of cell survival rate. All calculations were performed by GraphPad Prism 7 software (GraphPad Software, USA).
(§4) The relative survival profiles of pancreatic cancer cells SW1990 (KRAS^G12D) and SW1990/GEM (KRAS^G12D) were also measured using the same method. SW1990/GEM was cultured in a culture medium with 50 μM gemcitabine to maintain drug resistance.

The subject of another data set is SW1990/GEM (KRAS^G12D). Kind of data set: In vitro cytotoxicity, MTS assay. Type of data set: cell-based. How it is done:
as §3, §4

The nature of data set [5]: Pharmacokinetics of dC3 and β-lap after intravenous injection. Type of data set: in vivo, Sprague Dawley rats. The following applies: Sprague Dawley, rat, plasma, 50 mg/kg (β-lap equivalent dose), β-lap once converted from dC3, read-out: pharmacokinetic half-life. How it is done: The comparison of pharmacokinetics of different preparations in Sprague Dawley rats (n=3 per group) was performed. […] The blood samples were centrifuged at 4° C. and 1000 rpm for 3 minutes. The plasma concentrations of β-lap and dC3 were analyzed by LC-MS/MS (AB Sciex QTRAP 5500, USA).

SMILES strings stand for the structures.

For `CCN(c1nc(N)c(C(=O)N=C(N)N)nc1Cl)C(C)C` [EIPA, 5-[N-ethyl-N-isopropyl] amiloride], the “effect on 6-TAMRA-BSA uptake (macropinocytosis)” value with BxPC-3 KRAS^G12V and in the data set on MIA PaCa-2 control [1] was “can be inhibited” each time. For the same molecule, the “effect on BSA uptake” value in the data set with BxPC-3 control and in the data set with MIA PaCa-2 KRAS KD was “almost had no effect” each time.
The solubility is the dissolved amount per volume that the medium holds. Regarding `CCC(=O)Oc1c2c(c3ccccc3c1OC(=O)CC)OC(C)(C)CC2` [dC3], the “IC50 values, compared among dC3 treatments” value in the data set on MIA PaCa-2 control [2] is listed as “comparable”. Also, in data set [3] (BSA introduced at a low BSA-dC3 ratio, PLE), the dC3-β-lap conversion ratio entry was “significantly reduced”. Besides, the dC3-β-lap conversion entry in data set [3] (BSA plus small amount of PEG-b-PLA proportional to micelle preparation) is given as “accelerated”. For the same molecule, the solubility in data set [4] is < 0.1 µg/mL.
In general, half-life refers to the time needed for the level to fall by half in the phase considered. On to `CC1(C)CCC2=C(O1)c1ccccc1C(=O)C2=O` [β-lap, β-lapachone], for which the inhibition of cells entry in the data set with SW1990 (KRAS^G12D) and with SW1990/GEM (KRAS^G12D) was “effectively inhibit” each time. For the same molecule, in data set [5], the half-life was ~24 min.
